Measurements from article PMC6746264, “Novel tyrosinase inhibitory peptide with free radical scavenging ability” (Journal of Enzyme Inhibition and Medicinal Chemistry, 2019).
Entries after “also recorded” stand apart in the source; their conditions may differ. No end group written: not given here.

What was measured:
[1] = system: human melanoma cell line (A375); experiment: Intracellular tyrosinase activity inhibition assay (melanin production); format: cell-based; conditions: A375 cells, 60 h, N = 3
Method: (§1) A human melanoma cell line (A375) was provided by the Stem Cell Bank, Chinese Academy of Sciences. The A375 cell line was cultured in DMEM media containing 10% fetal bovine serum and 1% penicillin/streptomycin in an incubator at 37 °C and an atmosphere containing 5% CO2[32].
The A375 cells were seeded at a density of 1 × 10^5 cells/well in a 6-well plate and cultured for 12 h. […] After adding 0.5 ml NaOH (1 M), the cells were disrupted by sonication, and incubated at 50 °C for 10 min.

A375 cells = experiment: MTT assay (cell viability); format: cell-based, human; conditions: 24 h, inhibitors 2.5 mM in PBS, absorbance 492 nm
Method: as §1
The A375 cells were seeded at a density of 1 × 10^4 cells per well in a 96-well plate. They were incubated for 24 h at 37 °C under an atmosphere containing 5% CO2. Then, different tyrosinase inhibitors were added into the culture media. After incubation for 24 h, the cell viability was measured using the MTT assay, which was based on the conversion of MTT to formazan crystals by mitochondrial dehydrogenases. Briefly, the cell cultures were incubated with a 20 µl MTT solution (5 mg/mL) for 4 h at 37 °C. The culture supernatant was carefully removed from the well, and 150 µl DMSO was added followed by shaking for 10 min to dissolve the formazan crystals. Absorbance at 492 nm was measured using a microplate reader (VersaMax Microplate Reader)[35]. Cell viability of the control group in which […] was replaced by PBS was defined as 100%[36].

A375 melanoma cells = experiment: Number of proliferated melanoma cells; format: cell-based, human
Method: Fig. S3. The OD values at 475 nm of the solutions shown in Fig. 1A after storage for 12 months. Error
Fig. S4. Total number of proliferated melanoma cells in the presence of different tyrosinase inhibitors.
The concentration of each inhibitor is 2.5 mM. Error bars represent S.D. N=3. […]

[2] = cited from earlier work
Excerpt: However, the adverse side effects associated with their use have led to restrictions in their applications.

mushroom tyrosinase = mushroom tyrosinase (Agaricus bisporus, UniProt C7FF04); experiment: Comparison of tyrosinase inhibition rate (maximum reaction rate, IC50); format: biochemical
Method: Figure 2. […] (D) The plot of the percentage of enzyme activity (Vss) vs the […] concentration [I]. IC50 of the inhibitors were directly obtained from the plots.
Before conducting the experiment, all the solutions, 96-well plates, and tips were heated at 37 °C. Equal volumes of tyrosine solutions (final concentration of 2.5 mM) were added to the 96-well plates, mixed with different concentrations of the inhibitors mentioned above and incubated for 10 min at 37 °C. Then, equal volume of the tyrosinase solution (100 U per well) was added to the 96-well plate using a multichannel pipette, which was placed immediately in a microplate reader under shaking conditions for 30 s. Finally, the light absorbance value at 475 nm was recorded at 37 °C continuously for 2 h with intervals of 20 s. The maximum reaction rate of tyrosinase at each concentration of the inhibitor was calculated.

tyrosinase = experiment: CD spectroscopy; format: binding, mushroom; conditions: 200–260 nm, 293.15 K, mixture with tyrosinase, 0.2 mg/ml
Method: The CD measurements were performed at 293.15 K with a bandwidth, step interval and scanning speed of 1.0 nm, 1 nm, and 50 nm min^−1, respectively.
Figure 4.

[3] = 1 mM, comparison among arbutin, glutathione and EF-5

Chain of mushroom tyrosinase (C7FF04 1-392): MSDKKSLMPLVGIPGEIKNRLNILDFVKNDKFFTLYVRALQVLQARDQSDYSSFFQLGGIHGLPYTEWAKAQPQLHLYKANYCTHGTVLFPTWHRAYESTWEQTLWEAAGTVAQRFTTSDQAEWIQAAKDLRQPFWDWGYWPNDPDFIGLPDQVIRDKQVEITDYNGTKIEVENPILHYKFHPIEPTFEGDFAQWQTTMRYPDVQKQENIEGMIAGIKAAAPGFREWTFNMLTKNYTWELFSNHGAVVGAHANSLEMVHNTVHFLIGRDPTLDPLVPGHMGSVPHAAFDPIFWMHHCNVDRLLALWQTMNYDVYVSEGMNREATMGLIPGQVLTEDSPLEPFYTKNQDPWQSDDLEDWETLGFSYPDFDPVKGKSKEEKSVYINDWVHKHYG

OC[C@H]1O[C@@H](Oc2ccc(O)cc2)[C@H](O)[C@@H](O)[C@@H]1O [arbutin]
melanin inhibitory effect [1, 3]: the melanin inhibitory effects of arbutin and glutathione were similar | melanin inhibitory effect ([1]; arbutin 5 mM compared with EF-5 0.5 mM): similar | cell viability / toxicity (A375 cells): the inhibitory effect of arbutin on the viability of melanoma cells is significant | total concentration of cells (A375 melanoma cells; A375, arbutin 5 mM group versus EF-5 0.5 mM group): much lesser than that in the EF-5 (0.5 mM) group | inhibition of cell proliferation (A375 melanoma cells; A375 melanoma cells, 2.5 mM, N=3): inhibit proliferation of the cells | contact dermatitis / exogenous ochronosis [2]: contact dermatitis

Oc1ccc(O)cc1 [hydroquinone]
contact dermatitis / exogenous ochronosis [2]: exogenous ochronosis

O=c1cc(CO)occ1O [kojic acid]
carcinogenicity [2]: has demonstrated carcinogenicity

ECGYF [EF-5, ECGYF]
IC50 relative to IC50 of arbutin (mushroom tyrosinase; EF-5 IC50 as fraction of that of arbutin): about 1/12 | cell viability / toxicity (A375 cells): nontoxic to cells; also recorded: nontoxic to the melanocytes

glutathione
lag phase of the catalytic reaction of tyrosinase (mushroom tyrosinase; 475 nm, 37 °C, compared with arbutin): may significantly increase the lag phase | change of CD spectrum of tyrosinase (tyrosinase): does not show such changes | melanin inhibitory effect [1, 3]: the melanin inhibitory effects of arbutin and glutathione were similar
